Data taken from PMC3738524, “Bioenergetic and Antiapoptotic Properties of Mitochondria from Cultured Human Prostate Cancer Cell Lines PC-3, DU145 and LNCaP” (PLoS ONE, 2013).
Where two headings read alike, the source gives them in different places.

Target: T1, Complex I (NADH dehydrogenase) (Homo sapiens, UniProt P49821)
T1 construct: gene NDUFV1
Details: optimal decylubiquinone as acceptor, 30 °C, '+' printed for ±

T1 sequence (P19404 33-249): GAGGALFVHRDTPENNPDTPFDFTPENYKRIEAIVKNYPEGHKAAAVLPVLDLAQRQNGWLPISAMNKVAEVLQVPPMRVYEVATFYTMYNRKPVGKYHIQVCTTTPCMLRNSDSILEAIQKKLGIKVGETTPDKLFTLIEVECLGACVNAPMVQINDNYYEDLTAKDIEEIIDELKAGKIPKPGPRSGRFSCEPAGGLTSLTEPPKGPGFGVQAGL
T1 sequence (P28331 24-727, further chain): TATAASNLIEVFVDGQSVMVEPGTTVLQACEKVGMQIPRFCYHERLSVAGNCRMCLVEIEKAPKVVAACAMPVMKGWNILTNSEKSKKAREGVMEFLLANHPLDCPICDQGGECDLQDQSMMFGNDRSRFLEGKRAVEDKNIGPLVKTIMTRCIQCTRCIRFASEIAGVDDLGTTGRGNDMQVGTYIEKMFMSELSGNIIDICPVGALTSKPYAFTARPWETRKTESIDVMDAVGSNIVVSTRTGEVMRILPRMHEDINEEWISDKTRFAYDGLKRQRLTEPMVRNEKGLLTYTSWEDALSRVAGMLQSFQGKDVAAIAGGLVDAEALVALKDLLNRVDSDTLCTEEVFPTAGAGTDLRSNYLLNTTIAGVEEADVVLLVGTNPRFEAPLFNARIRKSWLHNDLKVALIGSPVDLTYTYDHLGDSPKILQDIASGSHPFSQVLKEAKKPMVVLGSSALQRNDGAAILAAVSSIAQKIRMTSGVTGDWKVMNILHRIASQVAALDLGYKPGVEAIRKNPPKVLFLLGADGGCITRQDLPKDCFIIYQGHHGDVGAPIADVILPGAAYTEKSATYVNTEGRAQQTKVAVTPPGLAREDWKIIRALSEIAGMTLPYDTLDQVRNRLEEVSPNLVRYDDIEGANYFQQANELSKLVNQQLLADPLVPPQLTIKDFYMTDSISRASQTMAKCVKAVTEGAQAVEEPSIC
T1 sequence (P49821 21-464): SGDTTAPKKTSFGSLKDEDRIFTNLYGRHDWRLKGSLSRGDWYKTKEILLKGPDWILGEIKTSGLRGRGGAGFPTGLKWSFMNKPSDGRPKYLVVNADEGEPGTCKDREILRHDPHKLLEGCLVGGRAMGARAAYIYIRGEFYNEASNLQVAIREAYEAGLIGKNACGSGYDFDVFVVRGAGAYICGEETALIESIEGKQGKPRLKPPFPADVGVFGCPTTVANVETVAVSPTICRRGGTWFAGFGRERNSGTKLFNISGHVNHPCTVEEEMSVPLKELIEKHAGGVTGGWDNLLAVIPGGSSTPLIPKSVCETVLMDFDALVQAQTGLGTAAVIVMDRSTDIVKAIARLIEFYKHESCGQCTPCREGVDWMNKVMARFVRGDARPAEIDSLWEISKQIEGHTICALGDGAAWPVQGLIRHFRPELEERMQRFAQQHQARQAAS

## NC(=O)C1=CN([C@@H]2O[C@H](COP(=O)(O)OP(=O)(O)OC[C@H]3O[C@@H](n4cnc5c(N)ncnc54)[C@H](O)[C@@H]3O)[C@@H](O)[C@H]2O)C=CC1 [NADH]
EBV-transformed normal lymphoblastoid HLB cells
  KM^NADH: 1.8+0.1 µM
Fibrosarcoma HT1080C cells
  KM^NADH: 5+2 µM
Normal prostate epithelial PrEC cells
  KM^NADH: 4+0.5 µM
Prostate cancer cells PC-3, DU145 and LNCaP (one common value printed)
  KM^NADH: 20+2.5 µM
